According to patent US8952024B2, “Herbicidal pyrimidone derivatives” (E I du Pont de Nemours and Company, priority 2009, dated 2015):

Assays:
Assay type in all cases: in vivo
[1] = tested on: ducksalad (Heteranthera limosa); experiment: Test B flooded paddy test; settings: for Plant response rating, Flood, Ducksalad: 250 g ai/ha, flooded paddy test, visual rating on 0 to 100 scale (0 no effect, 100 complete control) after 13 to 15 days; for Plant response rating, Ducksalad: Flood (flooded paddy test), 13 to 15 days; for Ducksalad plant response rating: Flood, 31 g ai/ha, scale 0 to 100 (0 no effect, 100 complete control)
How it was run: (§1)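 Ratings are visual, 0–100 (100 = complete control), taken versus untreated controls 13 to 15 days after treatment in the greenhouse. Compound went straight into paddy water held 3 cm above soil, applied to 2-leaf-stage plants of four species.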

[2] = tested on: barnyardgrass (Echinochloa crus-galli); experiment: Test B flooded paddy test; settings: for Plant response rating, Flood, Barnyardgrass: 250 g ai/ha, flooded paddy test, visual rating on 0 to 100 scale (0 no effect, 100 complete control) after 13 to 15 days; for Plant response rating, Barnyardgrass: Flood (flooded paddy test), 13 to 15 days; for Barnyardgrass plant response rating: Flood, 31 g ai/ha, scale 0 to 100 (0 no effect, 100 complete control)
How it was run: as §1

[3] = tested on: umbrella sedge (Cyperus difformis); experiment: Test B flooded paddy test; settings: for Plant response rating, Flood, Sedge, Umbrella: 250 g ai/ha, flooded paddy test, visual rating on 0 to 100 scale (0 no effect, 100 complete control) after 13 to 15 days; for Plant response rating, Sedge, Umbrella: Flood (flooded paddy test), 13 to 15 days; for Sedge, Umbrella plant response rating: Flood, 31 g ai/ha, scale 0 to 100 (0 no effect, 100 complete control)
How it was run: as §1

rice (Oryza sativa) = experiment: Test B flooded paddy test; settings: for Plant response rating, Flood, Rice: 250 g ai/ha, flooded paddy test, visual rating on 0 to 100 scale (0 no effect, 100 complete control) after 13 to 15 days; for Plant response rating, Rice: Flood (flooded paddy test), 13 to 15 days; for Rice plant response rating: Flood, 31 g ai/ha, scale 0 to 100 (0 no effect, 100 complete control)
How it was run: as §1

corn (Zea mays) = experiment: Test A pre-/postemergence plant response
Description: (§2) Seeds of barnyardgrass (Echinochloa crus-galli), large crabgrass (Digitaria sanguinalis), giant foxtail (Setaria faberii), morningglory (Ipomoea spp.), pigweed (Amaranthus retroflexus), velvetleaf (Abutilon theophrasti), wheat (Triticum aestivum) and corn (Zea mays) were planted into a blend of loam soil and sand and treated preemergence with a directed soil spray using test chemicals formulated in a non-phytotoxic solvent mixture which included a surfactant. At the same time these species were also treated with postemergence applications of test compounds formulated in the same manner.
(§3) Plants ranged in height from two to ten cm and were in the one- to two-leaf stage for the postemergence treatment. Treated plants and untreated controls were maintained in a greenhouse for approximately ten days, after which time all treated plants were compared to untreated controls and visually evaluated for injury. Plant response ratings, summarized in Table A, are based on a 0 to 100 scale where 0 is no effect and 100 is complete control. A dash (-) response means no test result.

[4] = tested on: velvetleaf (Abutilon theophrasti); experiment: Test A pre-/postemergence plant response
Description: as §2, §3

[5] = tested on: barnyardgrass (Echinochloa crus-galli); experiment: Test A pre-/postemergence plant response
Description: as §2, §3

[6] = tested on: large crabgrass (Digitaria sanguinalis); experiment: Test A pre-/postemergence plant response
Description: as §2, §3

[7] = tested on: wheat (Triticum aestivum); experiment: Test A pre-/postemergence plant response
Description: as §2, §3

[8] = tested on: morningglory (Ipomoea spp.); experiment: Test A pre-/postemergence plant response
Description: as §2, §3

[9] = tested on: giant foxtail (Setaria faberii); experiment: Test A pre-/postemergence plant response
Description: as §2, §3

[10] = tested on: pigweed (Amaranthus retroflexus); experiment: Test A pre-/postemergence plant response
Description: as §2, §3

[11] = 62 g ai/ha, scale of 0 to 100 where 0 is no effect and 100 is complete control
[12] = Postemergence, 125 g ai/ha, 0 to 100 scale where 0 is no effect and 100 is complete control
[13] = Postemergence, 500 g ai/ha, 0 to 100 scale, 0 = no effect, 100 = complete control, approx. ten days
[14] = Preemergence, 125 g ai/ha, 0 to 100 scale, 0 = no effect, 100 = complete control
[15] = Preemergence, 500 g ai/ha, visual injury, 0 to 100 scale (0 no effect, 100 complete control), approx. ten days
[16] = 125 g ai/ha, scale 0 to 100, 0 is no effect, 100 is complete control
[17] = Postemergence, 500 g ai/ha, visual injury, 0 to 100 scale (0 no effect, 100 complete control), approx. ten days
[18] = Preemergence, 125 g ai/ha, 0 to 100 scale where 0 is no effect and 100 is complete control, approximately ten days
[19] = Preemergence, 500 g ai/ha, 0 to 100 scale, 0 = no effect, 100 = complete control
[20] = Postemergence, 125 g ai/ha, visual injury, 0 to 100 scale (0 no effect, 100 complete control), approx. ten days

## CCCn1c(-c2ccc(OC)cc2)ncc(C(=O)C2=C(O)CCCC2=O)c1=O [Compound 112]
[1]
  Plant response rating, Flood, Ducksalad: 95
[1]; [11]
  Plant response rating, Ducksalad: 85
[2]
  Plant response rating, Flood, Barnyardgrass: 40
[2]; [11]
  Plant response rating, Barnyardgrass: 35
[3]
  Plant response rating, Flood, Sedge, Umbrella: 90
[3]; [11]
  Plant response rating, Sedge, Umbrella: 85
Rice (Oryza sativa)
  Plant response rating, Flood, Rice: 15
Rice (Oryza sativa); [11]
  Plant response rating, Rice: 0
Corn (Zea mays); [12]
  Plant response rating, Corn: 0
Corn (Zea mays); [13]
  Plant response rating, Corn: 20
Corn (Zea mays); [14]
  Plant response rating, Corn: 0
Corn (Zea mays); [15]
  Plant response rating, Corn: 0
[4]; [12]
  Plant response rating, Velvetleaf: 100
[4]; [13]
  Plant response rating, Velvetleaf: 100
[4]; [14]
  Plant response rating, Velvetleaf: 40
[4]; [15]
  Plant response rating, Velvetleaf: 70
[5]; [12]
  Plant response rating, Barnyardgrass: 60
[5]; [13]
  Plant response rating, Barnyardgrass: 90
[5]; [14]
  Plant response rating, Barnyardgrass: 0
[5]; [15]
  Plant response rating, Barnyardgrass: 80
[6]; [12]
  Plant response rating, Crabgrass, Large: 80
[6]; [13]
  Plant response rating, Crabgrass, Large: 90
[6]; [14]
  Plant response rating, Crabgrass, Large: 60
[6]; [15]
  Plant response rating, Crabgrass, Large: 100
[7]; [12]
  Plant response rating, Wheat: 0
[7]; [13]
  Plant response rating, Wheat: 10
[7]; [14]
  Plant response rating, Wheat: 0
[7]; [15]
  Plant response rating, Wheat: 0
[8]; [12]
  Plant response rating, Morningglory: 90
[8]; [13]
  Plant response rating, Morningglory: 100
[8]; [14]
  Plant response rating, Morningglory: 0
[8]; [15]
  Plant response rating, Morningglory: 80
[9]; [12]
  Plant response rating, Foxtail, Giant: 70
[9]; [13]
  Plant response rating, Foxtail, Giant: 80
[9]; [14]
  Plant response rating, Foxtail, Giant: 20
[9]; [15]
  Plant response rating, Foxtail, Giant: 60
[10]; [12]
  Plant response rating, Pigweed: 90
[10]; [13]
  Plant response rating, Pigweed: 100
[10]; [14]
  Plant response rating, Pigweed: 20
[10]; [15]
  Plant response rating, Pigweed: 100

## O=C(C1=C(O)C2CCC(C2)C1=O)c1cnc(-c2ccccc2)n(C2CCOCC2)c1=O (stereo not shown) [Compound 249]
[1]
  Plant response rating, Flood, Ducksalad: 90
  Ducksalad plant response rating: 0
[1]; [11]
  Plant response rating, Ducksalad: 65
[1]; [16]
  Plant response rating, Ducksalad: 80
[2]
  Plant response rating, Flood, Barnyardgrass: 0
  Barnyardgrass plant response rating: 0
[2]; [11]
  Plant response rating, Barnyardgrass: 0
[2]; [16]
  Plant response rating, Barnyardgrass: 0
[3]
  Plant response rating, Flood, Sedge, Umbrella: 90
  Sedge, Umbrella plant response rating: 0
[3]; [11]
  Plant response rating, Sedge, Umbrella: 60
[3]; [16]
  Plant response rating, Sedge, Umbrella: 85
Rice (Oryza sativa)
  Plant response rating, Flood, Rice: 15
  Rice plant response rating: 0
Rice (Oryza sativa); [11]
  Plant response rating, Rice: 0
Rice (Oryza sativa); [16]
  Plant response rating, Rice: 0
Corn (Zea mays); [12]
  Plant response rating, Corn: 0
Corn (Zea mays); [17]
  Corn plant response rating: 20
Corn (Zea mays); [18]
  Plant response rating, Corn: 0
Corn (Zea mays); [19]
  Plant response rating, Corn: 0
[4]; [20]
  Plant response rating, Velvetleaf: 100
[4]; [17]
  Velvetleaf plant response rating: 100
[4]; [18]
  Plant response rating, Velvetleaf: 60
[4]; [19]
  Plant response rating, Velvetleaf: 90
[5]; [12]
  Plant response rating, Barnyardgrass: 90
[5]; [17]
  Barnyardgrass plant response rating: 100
[5]; [18]
  Plant response rating, Barnyardgrass: 0
[5]; [19]
  Plant response rating, Barnyardgrass: 40
[6]; [12]
  Plant response rating, Crabgrass, Large: 90
[6]; [17]
  Crabgrass, Large plant response rating: 100
[6]; [18]
  Plant response rating, Crabgrass, Large: 40
[6]; [19]
  Plant response rating, Crabgrass, Large: 80
[7]; [20]
  Plant response rating, Wheat: 10
[7]; [17]
  Wheat plant response rating: 50
[7]; [18]
  Plant response rating, Wheat: 0
[7]; [19]
  Plant response rating, Wheat: 0
[8]; [20]
  Plant response rating, Morningglory: 100
[8]; [17]
  Morningglory plant response rating: 100
[8]; [18]
  Plant response rating, Morningglory: 30
[8]; [19]
  Plant response rating, Morningglory: 70
[9]; [20]
  Plant response rating, Foxtail, Giant: 80
[9]; [17]
  Foxtail, Giant plant response rating: 90
[9]; [18]
  Plant response rating, Foxtail, Giant: 20
[9]; [19]
  Plant response rating, Foxtail, Giant: 40
[10]; [20]
  Plant response rating, Pigweed: 90
[10]; [17]
  Pigweed plant response rating: 100
[10]; [18]
  Plant response rating, Pigweed: 80
[10]; [19]
  Plant response rating, Pigweed: 100

## O=C(C1=C(O)C2CCC(C2)C1=O)c1cnc(-c2cc(F)cc(F)c2)n(-c2ccccc2)c1=O (stereo not shown) [Compound 246]
[1]
  Plant response rating, Flood, Ducksalad: 100
  Ducksalad plant response rating: 85
[1]; [11]
  Plant response rating, Ducksalad: 100
[1]; [16]
  Plant response rating, Ducksalad: 100
[2]
  Plant response rating, Flood, Barnyardgrass: 60
  Barnyardgrass plant response rating: 0
[2]; [11]
  Plant response rating, Barnyardgrass: 0
[2]; [16]
  Plant response rating, Barnyardgrass: 20
[3]
  Plant response rating, Flood, Sedge, Umbrella: 100
  Sedge, Umbrella plant response rating: 0
[3]; [11]
  Plant response rating, Sedge, Umbrella: 85
[3]; [16]
  Plant response rating, Sedge, Umbrella: 100
Rice (Oryza sativa)
  Plant response rating, Flood, Rice: 65
  Rice plant response rating: 0
Rice (Oryza sativa); [11]
  Plant response rating, Rice: 30
Rice (Oryza sativa); [16]
  Plant response rating, Rice: 65
Corn (Zea mays); [12]
  Plant response rating, Corn: 0
Corn (Zea mays); [17]
  Corn plant response rating: 90
Corn (Zea mays); [18]
  Plant response rating, Corn: 0
Corn (Zea mays); [19]
  Plant response rating, Corn: 50
[4]; [20]
  Plant response rating, Velvetleaf: 100
[4]; [17]
  Velvetleaf plant response rating: 100
[4]; [18]
  Plant response rating, Velvetleaf: 90
[4]; [19]
  Plant response rating, Velvetleaf: 100
[5]; [12]
  Plant response rating, Barnyardgrass: 70
[5]; [17]
  Barnyardgrass plant response rating: 100
[5]; [18]
  Plant response rating, Barnyardgrass: 10
[5]; [19]
  Plant response rating, Barnyardgrass: 100
[6]; [12]
  Plant response rating, Crabgrass, Large: 70
[6]; [17]
  Crabgrass, Large plant response rating: 100
[6]; [18]
  Plant response rating, Crabgrass, Large: 100
[6]; [19]
  Plant response rating, Crabgrass, Large: 100
[7]; [20]
  Plant response rating, Wheat: 0
[7]; [17]
  Wheat plant response rating: 50
[7]; [18]
  Plant response rating, Wheat: 0
[7]; [19]
  Plant response rating, Wheat: 50
[8]; [20]
  Plant response rating, Morningglory: 90
[8]; [17]
  Morningglory plant response rating: 100
[8]; [18]
  Plant response rating, Morningglory: 20
[8]; [19]
  Plant response rating, Morningglory: 60
[9]; [20]
  Plant response rating, Foxtail, Giant: 80
[9]; [17]
  Foxtail, Giant plant response rating: 100
[9]; [18]
  Plant response rating, Foxtail, Giant: 90
[9]; [19]
  Plant response rating, Foxtail, Giant: 90
[10]; [20]
  Plant response rating, Pigweed: 90
[10]; [17]
  Pigweed plant response rating: 100
[10]; [18]
  Plant response rating, Pigweed: 100
[10]; [19]
  Plant response rating, Pigweed: 100
